Assay results from patent US20090269795A1, “Mutant alpha4betadelta GABAA receptor and methods of treating anxiety or irritability” (priority 2007, published 2009).

Assays:
[1] = test system: CA1 hippocampal pyramidal cells; assay: Tonic GABAergic current, whole cell patch clamp, hippocampal slice; assay type: cell-based, mouse
Description: In whole cell recordings of the tonic current, the bath contained 2 mM kynurenic acid and 5-10 mM TEA to pharmacologically isolate the GABAergic current, and in some cases, 200 nM gabazine (6-imino-3-(4-methyoxyphenyl)-1 (6H)-pyridazinebutanoic acid hydrobromide) to selectively block the synaptic GABAergic currents^22. […] In some cases, 50 μM L-655,708 was added to the bath solution to block α5-containing GABAA receptors^23.
Tonic current was recorded as the difference current produced by 120 μM gabazine, which blocks all GABAA receptor, before and after 30 nM THP^24. Current was also recorded in response to 2 s 10 mV steps in the holding potential, and current-voltage curves generated to the steady-state current. Because fast-inactivating conductances would not be excluded in a voltage ramp, stable steady-state current responses were used instead to construct the current-voltage (IV) curves. Input resistance (Rm) was calculated from the current response to voltage steps from −60 to −40 mV using Ohm's Law. The reversal potential was determined by the […] of the IV curve (−90 to −10 mV). The gabazine-sensitive slope conductance was assessed as the slope of the linear portion of outward current plot recorded before and after THP after subtraction of the gabazine-generated current (in the presence of L-655,708 to block α5-GABAA receptors). Only data with a stable baseline and pipet access resistance <10 MΩ were included in the analysis.

thalamic relay neurons = assay: Tonic current in thalamic relay neurons, slice; assay type: cell-based, mouse; conditions: pre-pubertal; n=6
Description: Hippocampal slice: Slice preparation^20: Animals were rapidly decapitated, and the brains removed and cooled using an ice cold solution of artificial cerebrospinal fluid (aCSF) containing (in mM): NaCl 124, KCl 5, CaCl2 2, KH2PO4 1.25, MgSO4 2, NaHCO3 26, and glucose 10, saturated with 95% O2, 5% CO2 and buffered to a pH of 7.4. Following sectioning at 400 μm on a Leica oscillating microtome, slices were incubated for one hour in oxygenated aCSF. Slice recording: Pyramidal cells in CA1 hippocampal slice^20 or thalamic relay neurons in the ventral tier were visualized using a Leica DIC-infrared upright microscope, and recorded at −50 or −60 mV using whole cell patch clamp procedures at room temperature (20-22° C., Axopatch 200B amplifier, Axon Instruments, 20 kHz sampling frequency, 2 kHz 4-pole Bessel filter) and pClamp 9.2 software. Patch pipets were fabricated to yield open tip resistances of 2-4 MΩ. Internal solution in mM for ECl=−70 (or ECl=−30): K-gluconate 141.5 (O), KCl 0 (52.3), CsCl 8.5 (145), HEPES 5, EGTA 5, CaCl2-H2O 0.5, QX-314 5 (Calbiochem), Mg-ATP 2, Li-GTP 0.5, pH 7.2, 290 mOsm. […] Electrode capacitance and series resistance were monitored and compensated; access resistance was monitored throughout the experiment, and cells discarded if the access resistance >10 MΩ. […]

[2] = test system: α4 and δ GABAA receptor subunits; assay: Western blot of hippocampal α4 and δ subunit expression; assay type: in vivo, mouse; conditions: replacement THP 10 mg kg−1 day−1 for 3 days
From the text: Animal subjects. Prepubertal and pubertal female C57BL6 mice (3½-6 weeks old, +/+ and δ^−/−1) were housed in a reverse light:dark cycle (12:12). Both sets of mice were originally supplied by G. Homanics (Univ. of Pittsburgh), and were bred on site, with +/+ mice supplemented from Jackson Laboratories (Bar Harbor, Me.). Initially, age-matched+/+littermates of the δ^−/−were used as controls, but because they were indistinguishable from C57BL6, data from both groups were pooled. Genotyping of the tails verified that mice were homozygous δ^−/−. […] The onset of puberty was determined by vaginal opening, and pubertal mice tested on the day of first metestrus, identified by vaginal morphology and verification of first estrus the previous day. […] Individual stages of puberty were not distinguished, and pre-pubertal mice were used before any visible signs of pubertal development, assessed by development of the peri-vaginal area. […]
Western blot: Procedures were performed on hippocampal membranes at protein concentrations in the linear range (5-10 μg), as we have described^7. Following preparation of crude hippocampal membranes, individual protein concentrations were assessed using the Bradford assay. […] (The δ antibody was a generous gift from W. Sieghart.) Optical densities were quantified with One-Dscan software from a scanned image. […]

CC(=O)[C@H]1CC[C@H]2[C@@H]3CC[C@H]4C[C@H](O)CC[C@]4(C)[C@H]3CC[C@]12C [THP, 3α-OH-5α[β]-pregnan-20-one]
reduction of outward tonic current ([1]; 30 nM THP, pubertal mice, low internal Cl−): 48±6%
effect on outward tonic current ([1]; before puberty): increased the outward tonic current
effect on tonic GABAergic current, inward ([1]; pubertal, cell loaded with Cl− to produce inward current): increased the tonic GABAergic current
effect on outward tonic current ([1]; δ−/− mouse after puberty): increased the outward tonic current
reduction of tonic current (thalamic relay neurons): 57±12%
effect on increased expression of α4 and δ subunits at onset of puberty [2]: prevented
